Converted amounts (≈) assume the structure as drawn. Like-named read-outs stand apart in the source and are kept apart here.
Assays:
[1] = Aqueous (equilibrium) solubility study in PBS; type: physicochemical; conditions: pH = 7.4, 37 °C
Procedure: The equilibrium solubility of CPT and CPT-HT-J-ZL12 was determined in triplicate in PBS, according to the reference method with some modifications. An excess amount (~5 mg) of the tested compounds were placed into tubes, and 1 mL PBS was added to the tube. Then the tubes were incubated at 37 °C for 24 h in an ermostated oscillator (HZQ-QX, Harbin Donglian Instrument Co., Ltd., Harbin, China). After incubation, samples (0.1 mL) were removed and centrifuged at 10,000× g for 10 min with high speed centrifuge (Sorvall™ Legend™ Micro 21, Thermo Fisher Scientific, Waltham, MA, USA). […] of the supernatant was diluted, and the concentration was measured with HPLC according the method below. CPT and CPT-HT-J-ZL12 were measured by HPLC systems configured with a Waters 2695 separation module and a Waters 2695 ultraviolet (UV) detector with the following conditions: Xbridge C18 column (250 mm × 4.6 mm, […]); temperature, 25 °C; elution flow rate, 1.0 mL/min; detection wavelength, 365 nm. mobile phase, 0.2% […] in water (A) and 0.2% formic acid in acetonitrile (B) using a gradient elution of 10–60% B at 0–5.0 min, 60–80% B at 5.0–15.0 min, 80% B at 15.0–17.0 min, and 10% B at 17.1–23.0 min.

LO2 cells = assay: cells; type: cell-based; conditions: read-out: IC50 LO2
Procedure: (§1) The cytotoxicities of PSMA-activated prodrug CPT-HT-J-ZLn and PSMA hydrolysate CPT-D-GLn were evaluated by MTT assays on PSMA-expressing (PSMA^+) cancer cell LNCaP-FGC, non-PSMA-expressing (PSMA^−) cancer cells HepG2, MCF-7, Hela, DU145, and PC-3, and normal cells MDCK, LO2, respectively, using CPT as a positive control.
(§2) The cytotoxicity of all the tested compounds was evaluated in vitro via the MTT method against PSMA-expressing LNCaP-FGC cells and non-PSMA-expressing cells HepG2, Hela, MCF-7, DU145, PC-3 cells using CPT as the positive control. Tumor cells growing in the logarithmic phase were seeded in 96-well plates at a density 3 × 10^3 cells/well and incubated overnight. The following day, cells were then treated with serial dilutions of the tested compounds for 72 h. At the end of this incubation, 20 µL of 5 mg/mL methylthiazol tetrazolium (MTT) was added to each well and incubation proceeded at 37 °C for another 4 h. After the supernatant medium was thrown away, 150 µL dimethylsulphoxide (DMSO) were added to each well and absorbance was measured at 490 nm using a plate reader (BIORAD 550 spectrophotometer, Bio-rad Life Science Development Ltd., Berkeley, CA, USA). Experiments were performed in triplicate and the values were the average of three (n = 3) independent experiments. The concentration of the compound that results in 50% growth inhibition corresponds to the IC50. Tumor cell growth inhibitory rate was calculated using Equation (1): % inhibition = (1 − Sample group OD/Control group OD) × 100%(1)

MDCK cells = assay: cells; type: cell-based; conditions: 72 h, read-out: IC50 MDCK
Procedure: as §1, §2

[2] = system: MCF-7 cells (non-PSMA-expressing); assay: cells; type: cell-based, human; conditions: read-out: IC50 MCF-7
Procedure: as §1
(§3) The human prostate cancer cell line (LNCaP-FGC), human prostate cancer cell line (PC-3), human prostate cancer cell line (DU-145), human breast cancer cell line (MCF-7), human hepatocellular carcinoma cell line (HepG2), human cervical cancer cell line (Hela), were obtained from the Chinese Academy of Medical Sciences and Peking Union Medical College. The cultures of the cells were maintained as a monolayer in RPMI 1640 or DMEM supplemented with 10% (v/v) heat inactivated fetal bovine serum and 1% (v/v) enicillin/streptomycin (Corning, New York, NY, USA) and incubated at 37 °C in a humidified atmosphere with 5% CO2. The tested compounds were dissolved in DMSO (Sigma, St. Louis, MO, USA) and added at required concentrations to the cell culture.
as §2

[3] = system: DU145 cells (non-PSMA-expressing); assay: cells; type: cell-based, human; conditions: read-out: IC50 DU145
Procedure: as §1, §3, §2

[4] = system: PC-3 cells (non-PSMA-expressing); assay: cells; type: cell-based, human; conditions: read-out: IC50 PC-3
Procedure: as §1, §3, §2

[5] = system: HepG2 cells (non-PSMA-expressing); assay: cells; type: cell-based, human; conditions: read-out: IC50 HepG2
Procedure: as §1, §3, §2

[6] = system: LNCaP-FGC cells (PSMA-expressing); assay: MTT cytotoxicity assay, LNCaP-FGC; type: cell-based, human; conditions: 72 h, read-out: IC50 LNCaP-FGC
Procedure: as §1, §3, §2

[7] = system: HeLa cells (non-PSMA-expressing); assay: MTT cytotoxicity assay, HeLa; type: cell-based, human; conditions: 72 h, mean ± SD, n = 3
Procedure: as §1
The tested compounds were dissolved in DMSO (Sigma, St. Louis, MO, USA) and added at required concentrations to the cell culture.
as §2, with “experiments.” for “experiments. The concentration of the compound that results in 50% growth inhibition corresponds to the IC50. Tumor cell growth inhibitory rate was calculated using Equation (1): % inhibition = (1 − Sample group OD/Control group OD) × 100%(1)”

`CC[C@@]1(O)C(=O)OCc2c1cc1n(c2=O)Cc2cc3ccccc3nc2-1` [CPT, Camptothecin] gave a solubility at 24 h [1] of 3 µg/mL (≈ 8.61 µM), an IC50 (LO2 cells; Homo sapiens, L02, MTT, 72 h, normal cells) of 0.04 ± 0.01 µM and an IC50 (MDCK cells; Canis lupus familiaris, MDCK, MTT, normal cells) of 0.02 ± 0.01 µM. For the same compound, the IC50 ([2]; Homo sapiens, MCF7, MTT, 72 h, mean ± SD, n = 3) was 0.16 ± 0.1 µM, the IC50 ([3]; Homo sapiens, DU-145, MTT, 72 h, mean ± SD, n = 3) was 0.21 ± 0.09 µM and the IC50 ([4]; Homo sapiens, PC-3, MTT, 72 h, mean ± SD, n = 3) was 0.13 ± 0.09 µM. It also gave an IC50 ([5]; Homo sapiens, HepG2, MTT, 72 h, mean ± SD, n = 3) of 5.43 ± 0.81 µM and an IC50 ([6]; Homo sapiens, MTT, mean ± SD, n = 3, PSMA+) of 0.18 ± 0.17 µM.
For `CC[C@@]1(OC(=O)CCCCCNC(=O)[C@@H](N)CCC(=O)N[C@@H](CCC(=O)N[C@@H](CCC(=O)N[C@@H](CC(=O)O)C(=O)N[C@@H](CCC(=O)O)C(=O)O)C(=O)O)C(=O)O)C(=O)OCc2c1cc1n(c2=O)Cc2cc3ccccc3nc2-1` [CPT-HT-J-ZL6, (3S,6S,11S,16S,21S)-21-amino-6-(carboxymethyl)-29-(((S)-4-ethyl-3,14-dioxo-3,4,12,14-tetrahydro-1H-pyrano[3′,4′:6,7]indolizino[1,2-b]quinolin-4-yl)oxy)-5,8,13,18,22,29-hexaoxo-4,7,12,17,23-pentaazanonacosane-1,3,11,16-tetracarboxylic acid], the IC50 (LO2 cells; MTT, 72 h, normal cells) was over 40 µM, the IC50 (MDCK cells; MTT, normal cells) was 19 ± 3.6 µM and the IC50 ([2]; MTT, 72 h, mean ± SD, n = 3) was 7.03 ± 3.76 µM. It also gave an IC50 ([3]; MTT, 72 h, mean ± SD, n = 3) of 26.3 ± 1.81 µM, an IC50 ([4]; MTT, 72 h, mean ± SD, n = 3) of 40 ± 3.37 µM and an IC50 ([5]; MTT, 72 h, mean ± SD, n = 3) of over 40 µM. The IC50 ([6]; MTT, mean ± SD, n = 3, PSMA+) was 3.13 ± 0.4 µM and the IC50 [7] was over 40 µM.
Compound `CC[C@@]1(OC(=O)CCCNC(=O)[C@H](CCC(=O)N[C@@H](CCC(=O)N[C@@H](CCC(=O)N[C@@H](CC(=O)OC(C)(C)C)C(=O)N[C@@H](CCC(=O)OC(C)(C)C)C(=O)OC(C)(C)C)C(=O)OC(C)(C)C)C(=O)OC(C)(C)C)NC(=O)OC(C)(C)C)C(=O)OCc2c1cc1n(c2=O)Cc2cc3ccccc3nc2-1` [CPT-HT-J-L4, 1,11,16,3-tetra-tert-butyl 26-((S)-4-ethyl-3,14-dioxo-3,4,12,14-tetrahydro-1H-pyrano[3′,4′:6,7]indolizino[1,2-b]quinolin-4-yl) (3S,6S,11S,16S,21S)-6-(2-(tert-butoxy)-2-oxoethyl)-21-((tert-butoxycarbonyl)amino)-5,8,13,18,22-pentaoxo-4,7,12,17,23-pentaazahexacosane-1,3,11,16,26-pentacarboxylate] has an IC50 (LO2 cells; MTT, 72 h, normal cells) of over 40 µM, an IC50 (MDCK cells; MTT, normal cells) of over 40 µM and an IC50 ([2]; MTT, 72 h, mean ± SD, n = 3) of over 40 µM. The IC50 ([3]; MTT, 72 h, mean ± SD, n = 3) was over 40 µM, the IC50 ([4]; MTT, 72 h, mean ± SD, n = 3) was over 40 µM and the IC50 ([5]; MTT, 72 h, mean ± SD, n = 3) was over 40 µM. It also gave an IC50 ([6]; MTT, mean ± SD, n = 3, PSMA+) of over 40 µM and an IC50 [7] of over 40 µM.
Work on `CC[C@@]1(OC(=O)CCCCCCCCCCCNC(=O)[C@@H](N)CCC(=O)O)C(=O)OCc2c1cc1n(c2=O)Cc2cc3ccccc3nc2-1` [CPT-D-GL12, (S)-4-amino-5-((12-(((S)-4-ethyl-3,14-dioxo-3,4,12,14-tetrahydro-1H-pyrano[3′,4′:6,7]indolizino[1,2-b]quinolin-4-yl)oxy)-12-oxododecyl)amino)-5-oxopentanoic acid] yielded an IC50 (LO2 cells; Homo sapiens, L02, 72 h) of 3.8 ± 0.8 µM, an IC50 (MDCK cells; Canis lupus familiaris, MDCK) of 5.1 ± 1.1 µM and an IC50 ([2]; Homo sapiens, MCF7, 72 h) of over 40 µM. It also gave an IC50 ([3]; Homo sapiens, DU-145, 72 h) of 7.38 ± 0.2 µM, an IC50 ([4]; Homo sapiens, PC-3, 72 h) of over 40 µM and an IC50 ([5]; Homo sapiens, HepG2, 72 h) of over 40 µM. The IC50 ([6]; Homo sapiens) was 2.1 ± 0.68 µM and the IC50 ([7]; Homo sapiens, HeLa) was 25.5 ± 1 µM.
`CC[C@@]1(OC(=O)CCCNC(=O)[C@@H](N)CCC(=O)N[C@@H](CCC(=O)N[C@@H](CCC(=O)N[C@@H](CC(=O)O)C(=O)N[C@@H](CCC(=O)O)C(=O)O)C(=O)O)C(=O)O)C(=O)OCc2c1cc1n(c2=O)Cc2cc3ccccc3nc2-1` [CPT-HT-J-ZL4, (3S,6S,11S,16S,21S)-21-amino-6-(carboxymethyl)-27-(((S)-4-ethyl-3,14-dioxo-3,4,12,14-tetrahydro-1H-pyrano[3′,4′:6,7]indolizino[1,2-b]quinolin-4-yl)oxy)-5,8,13,18,22,27-hexaoxo-4,7,12,17,23-pentaazaheptacosane-1,3,11,16-tetracarboxylic acid] showed an IC50 (LO2 cells; MTT, 72 h, normal cells) of over 40 µM, an IC50 (MDCK cells; MTT, normal cells) of 9.13 ± 2.4 µM and an IC50 ([2]; MTT, 72 h, mean ± SD, n = 3) of 0.32 ± 0.01 µM. For the same compound, the IC50 ([3]; MTT, 72 h, mean ± SD, n = 3) was 9.73 ± 3.49 µM, the IC50 ([4]; MTT, 72 h, mean ± SD, n = 3) was 9.98 ± 2.38 µM and the IC50 ([5]; MTT, 72 h, mean ± SD, n = 3) was over 40 µM. For the same compound, the IC50 ([6]; MTT, mean ± SD, n = 3, PSMA+) was 1.18 ± 0.1 µM and the IC50 [7] was over 40 µM.
`CC[C@@]1(OC(=O)CNC(=O)[C@H](CCC(=O)N[C@@H](CCC(=O)N[C@@H](CCC(=O)N[C@@H](CC(=O)OC(C)(C)C)C(=O)N[C@@H](CCC(=O)OC(C)(C)C)C(=O)OC(C)(C)C)C(=O)OC(C)(C)C)C(=O)OC(C)(C)C)NC(=O)OC(C)(C)C)C(=O)OCc2c1cc1n(c2=O)Cc2cc3ccccc3nc2-1` [CPT-HT-J-L2, 14,22,24,9-tetra-tert-butyl 1-((S)-4-ethyl-3,14-dioxo-3,4,12,14-tetrahydro-1H-pyrano[3′,4′:6,7]indolizino[1,2-b]quinolin-4-yl) (4S,9S,14S,19S,22S)-19-(2-(tert-butoxy)-2-oxoethyl)-4-((tert-butoxycarbonyl)amino)-3,7,12,17,20-pentaoxo-2,8,13,18,21-pentaazatetracosane-1,9,14,22,24-pentacarboxylate] gave an IC50 (LO2 cells; MTT, 72 h, normal cells) of over 40 µM, an IC50 (MDCK cells; MTT, normal cells) of over 40 µM and an IC50 ([2]; MTT, 72 h, mean ± SD, n = 3) of over 40 µM. It also gave an IC50 ([3]; MTT, 72 h, mean ± SD, n = 3) of over 40 µM, an IC50 ([4]; MTT, 72 h, mean ± SD, n = 3) of over 40 µM and an IC50 ([5]; MTT, 72 h, mean ± SD, n = 3) of over 40 µM. It also gave an IC50 ([6]; MTT, mean ± SD, n = 3, PSMA+) of over 40 µM and an IC50 [7] of over 40 µM.
`CC[C@@]1(OC(=O)CCCCCN)C(=O)OCc2c1cc1n(c2=O)Cc2cc3ccccc3nc2-1` [CPT-B-L6, (S)-4-ethyl-3,14-dioxo-3,4,12,14-tetrahydro-1H-pyrano[3′,4′:6,7]indolizino[1,2-b]quinolin-4-yl 6-aminohexanoate] showed an IC50 (LO2 cells; Homo sapiens, L02, 72 h) of 2.71 ± 0.38 µM, an IC50 (MDCK cells; Canis lupus familiaris, MDCK) of 5.44 ± 3 µM and an IC50 ([2]; Homo sapiens, MCF7, 72 h) of 6.76 ± 1.47 µM. The IC50 ([3]; Homo sapiens, DU-145, 72 h) was 3.55 ± 0.95 µM, the IC50 ([4]; Homo sapiens, PC-3, 72 h) was 15.9 ± 1.73 µM and the IC50 ([5]; Homo sapiens, HepG2, 72 h) was over 40 µM. It also gave an IC50 ([6]; Homo sapiens) of 1.89 ± 0.2 µM and an IC50 ([7]; Homo sapiens, HeLa) of 15 ± 0.8 µM.
